Among the data in patent publication US20240018125A1, “CYCLIC ISOTHIOUREA DERIVATIVES AS CXCR4 MODULATORS” (ERMIUM THERAPEUTICS, priority 2020, published 2024) are IC50 values, retold here.

The test deals with peripheral blood mononuclear cells (PBMCs) from healthy donors. Kind of test: IFN production by R848-activated PBMCs, quantified with twINNE luciferase reporter cell line. Type of test: cell-based, human. Conditions: Homo sapiens, PBMC; read-out: IC50 of anti-inflammatory activity (IFN production by activated PBMCs). The protocol:
The blood from healthy donors was obtained from “Etablissement Français du Sang” (convention #19/EFS/029), Paris, France.
In vitro experiments were performed using human peripheral blood mononuclear cells (PBMCs) isolated by density centrifugation from peripheral blood leukocyte separation medium, lymphoprep (Stemcell Technologies).
PBMCs were cultured in RPMI 1640 (Sigma-Aldrich, MO, USA) containing 10% heat-inactivated fetal bovine serum (Sigma-Aldrich, MO, USA) at 37° C./5% CO2.
The PBMCs used herein were prepared as described in part A “immune cells preparation”, above. PBMCs were seeded at 4.10^6/mL. Cells were pre-treated with different concentration of examples according to the invention. Cells were then stimulated with the TLR7/8 agonist resiquimod—R848 (Sigma-Aldrich, MO, USA) at 5 μg/mL.
To quantify the secretion of functional IFN, a biological assay based on a stable cell line where luciferase reporter gene is controlled by five Interferon-Stimulated Response Elements (twINNE cell line) was used. First, supernatants of R848-stimulated PBMCs (see part B above) were harvested after 24 h of stimulation and frozen at −20° C. for storage. Then, supernatants were dispensed in culture wells of a 96-well plate containing 35.103 twINNE cells per well in Dulbecco's Modified Eagle's Medium supplemented with 10% Foetal Bovine Serum, 100 U/mL Penicillin and 100 μg/mL Streptomycin (1% Pen-Strep) and 1 mM glutamine (Sigma-Aldrich, MO, USA) at 37° C./5% CO2. After 24 h of culture, luciferase activity was determined by adding 60 μL of Bright-Glo reagents (Promega, Wisconsin, USA) to culture wells and measuring bioluminescence with EnSpire Multimode Plate Reader (PerkinElmer, Massachusetts, USA). When stated, for IC50 calculation, dose-response curves fitted using the nonlin fit (variable slope) analysis in GraphPad Prism software (GraphPad Software, Califronia, USA).
IFN production was quantified (as specified in Materials and Methods, part C “quantification of interferon secretion”) using twINNE reporter cell line.
A general note: A reporter such as luciferase makes a cellular process visible.

pIC50: −log10 of the molar value. Structures can show the parent of a compound that is named as a salt.

What is called pIC50 is −log10 of the IC50, conventionally taken in molar units. Consider `C1=C(CSC2=NCc3ccccc3N2)N2C(=N[C@H]3CCCC[C@@H]32)S1` (relative stereo) [Example 13, trans-3-(((3,4-dihydroquinazolin-2-yl)thio)methyl)-4a,5,6,7,8,8a-hexahydrobenzo[4,5]imidazo[2,1-b]thiazole dihydrochloride], for which the pIC50 is not below 5.00.

As to `C1=C(CSC2=NCc3ccccc3N2)N2C(=N[C@H](c3ccccc3)[C@H]2c2ccccc2)S1` (relative stereo) [Example 16, trans-3-(((3,4-dihydroquinazolin-2-yl)thio)methyl)-5,6-diphenyl-5,6-dihydroimidazo[2,1-b]thiazole dihydrochloride], the pIC50 is not below 5.00.

Regarding `OC1(CSC2=NCc3ccccc3N2)CSC2=N[C@H](c3ccccc3)[C@@H](c3ccccc3)N21` (relative stereo) [Example 17, trans-3-(((3,4-dihydroquinazolin-2-yl)thio)methyl)-5,6-diphenyl-2,3,5,6-tetrahydroimidazo[2,1-b]thiazol-3-ol dihydrochloride], the pIC50 was less than 4.49.

Turning to `c1ccc2c(c1)CN=C(SCCN1C[C@@H]3C[C@H]1CO3)N2` (stereo in doubt) [Example 139, (1S,4S)-5-(2-((1,4-dihydroquinazolin-2-yl)thio)ethyl)-2-oxa-5-azabicyclo[2.2.1]heptane dihydrochloride], the pIC50 is 4.49 to 5.00.

Take `c1ccc2c(c1)CN=C(SCCN1C[C@H]3C[C@@H]1CO3)N2` (stereo in doubt) [Example 146, (1R,4R)-5-(2-((1,4-dihydroquinazolin-2-yl)thio)ethyl)-2-oxa-5-azabicyclo[2.2.1]heptane dihydrochloride]: the pIC50 is 4.49 to 5.00.

For the molecule `CC1(C)CN2C(CSC3=NCc4cc(Cl)ccc4N3)=CSC2=N1` [Example 1, 3-(((6-chloro-1,4-dihydroquinazolin-2-yl)thio)methyl)-6,6-dimethyl-5,6-dihydroimidazo[2,1-b]thiazole dihydrochloride], the pIC50 was not below 5.00.

Turning to `CC1(C)CN=C(SCC2=CSC3=Nc4ccc(Cl)cc4CN23)N1` [Example 2, 7-chloro-3-(((5,5-dimethyl-4,5-dihydro-1H-imidazol-2-yl)thio)methyl)-5H-thiazolo[2,3-b]quinazoline dihydrochloride], the pIC50 is 4.49 to 5.00.

As to `CC1(C)CN2C(CSC3=NCc4ccccc4N3)=CSC2=N1` [Example 3, 3-(((3,4-dihydroquinazolin-2-yl)thio)methyl)-6,6-dimethyl-5,6-dihydroimidazo[2,1-b]thiazole dihydrochloride], the pIC50 is not below 5.00.

In the case of `Clc1ccc2c(c1)CN1C(CSC3=NCCN3)=CSC1=N2` [Example 4, 7-chloro-3-(((4,5-dihydro-1H-imidazol-2-yl)thio)methyl)-5H-thiazolo[2,3-b]quinazoline dihydrochloride], the pIC50 was not below 5.00.

On to `CC1(C)CN=C(SCC2=CSC3=Nc4ccccc4CN23)N1` [Example 5, 3-(((5,5-dimethyl-4,5-dihydro-1H-imidazol-2-yl)thio)methyl)-5H-thiazolo[2,3-b]quinazoline dihydrochloride], for which the pIC50 was 4.49 to 5.00.

With `CC1(C)CN2C(CSC3=NCc4ccc(Cl)cc4N3)=CSC2=N1` [Example 6, 3-(((7-chloro-1,4-dihydroquinazolin-2-yl)thio)methyl)-6,6-dimethyl-5,6-dihydroimidazo[2,1-b]thiazole dihydrochloride], the pIC50 was not below 5.00.

As to `CC1(C)CN2C(CSC3=NCc4ccccc4CN3)=CSC2=N1` [Example 7, 3-(((2,5-dihydro-1H-benzo[e][1,3]diazepin-3-yl)thio)methyl)-6,6-dimethyl-5,6-dihydroimidazo[2,1-b]thiazole dihydrochloride], the negative logarithm of the IC50 (pIC50) is less than 4.49.

Consider `CC1(C)CN=C(SCC2=CSC3=NCc4ccccc4CN23)N1` [Example 8, 3-(((5,5-dimethyl-4,5-dihydro-1H-imidazol-2-yl)thio)methyl)-5,10-dihydrobenzo[e]thiazolo[3,2-a][1,3]diazepine dihydrochloride], for which the pIC50 was not below 5.00.
